Values quoted from earlier work in patent US20200308169A1, “HETEROCYCLIC COMPOUNDS AS ANTIBACTERIALS” (JANSSEN SCIENCES IRELAND UNLIMITED COMPANY, priority 2016, published 2020).
In brackets after ≈: the same amount, converted by molar mass.

Legend:
[1] = tested on: replicating and non-replicating bacteria; details: both replicating and non-replicating bacteria
M. tuberculosis H37Rv = details: strain H37Rv, inside macrophages

For `CCc1nc2ccc(Cl)cn2c1C(=O)NCc1ccc(N2CCC(c3ccc(OC(F)(F)F)cc3)CC2)cc1` [Q203], the “activity against replicating and non-replicating bacteria” value [1] is given as “highly active” and the MIC50 (M. tuberculosis H37Rv) is given as 0.28 nM (≈ 0.156 ng/mL).
